pEC50: −log10 of the molar value.
Test system: C666-1 cells
Assay: C666-1 Cell Viability Assay (Resazurin cytotoxicity test)
Type: cell-based
Details: Homo sapiens, C6661, EB virus-positive C666-1 cells, 72 hours treatment, 100-0.78 micromole/L, read-out: Inhibitory Rate
How it was run: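 EBV-positive nasopharyngeal carcinoma C666-1 cells, 5×10^3 per well, were grown 24 h, then exposed to compound for 72 h at 37 °C (8-point two-fold dilutions, final 100–0.78 µM). Viability was read by resazurin reduction fluorescence after 3 h; EC50 came from the fitted inhibition curve.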

SMILES | pEC50
COC(=O)c1cccc(N2CC(Oc3ccc(NC(=O)Cc4cccnc4)cc3)C2)c1-c1ccccc1 [Example 45, methyl 6-(3-(4-(2-(pyridin-3-yl)acetamido)phenoxy)azetidin-1-yl)-[1,1′-biphenyl]-2-carboxylate] | > 6.00
COC(=O)c1cccc(C#Cc2ccc(NC(=O)Nc3cccnc3)cc2)c1-c1ccc2cc[nH]c2c1 [Example 59, methyl 2-(1H-indol-6-yl)-3-((4-(3-(pyridin-3-yl)ureido)phenyl)ethynyl) benzoate] | > 6.00
O=C(Cc1ccc(OC2CN(c3cccc(C(=O)NO)c3-c3ccccc3)C2)cc1)Nc1cccnc1 [Example 40b, N-hydroxy-6-(3-(4-(2-oxo-2-(pyridin-3-ylamino)ethyl)phenoxy)azetidin-1-yl)-[1,1′-biphenyl]-2-carboxamide] | > 6.00
O=C(NO)c1cccc(N2CC(Oc3ccc(/C=C/c4cccnc4)cc3)C2)c1-n1cccc1 [Example 28b, (E)-N-hydroxy-3-(3-(4-(2-(pyridin-3-yl)vinyl)phenoxy)azetidin-1-yl)-2-(1H-pyrrol-1-yl) benzamide] | > 6.00
O=C(O)c1cccc(N2CC(Oc3ccc(Oc4ccncc4)cc3)C2)c1-n1cccc1 [Example 26a, 3-(3-(4-(pyridin-4-yloxy)phenoxy)azetidin-1 - yl)-2-(1H-pyrrol-1-yl) benzoic acid] | 4.30 to 5.00
O=C(Nc1ccc(OC2CN(c3cccc(C(=O)O)c3-c3cccc(Cl)c3)C2)cc1)Nc1cccnc1 [Example 41a, 3′-chloro-6-(3-(4-(3-(pyridin-3-yl)ureido)phenoxy)azetidin-1-yl)-[1,1′-biphenyl]-2-carboxylic acid] | 5.00 to 6.00
COC(=O)c1cccc(N2CC(Oc3ccc(CNc4cccnc4)cc3)C2)c1-c1cccc(Cl)c1 [Example 38, methyl 3′-chloro-6-(3-(4-((pyridin-3-ylamino)methyl)phenoxy)azetidin-1-yl)-[1,1′-biphenyl]-2-carboxylate] | 4.30 to 5.00
O=C(O)c1cccc(N2CC(Oc3ccc(COc4ccncc4)cc3)C2)c1-n1cccc1 [Example 8a, 3-(3-(4-((pyridin-4-yloxy)methyl)phenoxy)azetidin-1-yl)-2-(1H-pyrrol-1-yl) benzoic acid] | < 4.30
COC(=O)c1cccc(N2CC(Oc3ccc(COc4cccnc4)cc3)C2)c1-c1ccccc1 [Example 17, methyl 6-(3-(4-((pyridin-3-yloxy)methyl)phenoxy)azetidin-1-yl)-[1,1′-biphenyl]-2-carboxylate] | 5.00 to 6.00
O=C(Cc1cccnc1)Nc1ccc(C#Cc2cccc(C(=O)O)c2-c2ccccc2)cc1 [Example 62a, 6-((4-(2-(pyridin-3-yl)acetamido)phenyl)ethynyl)-[1,1′-biphenyl]-2-carboxylic acid] | > 6.00
COC(=O)c1cccc(N2CC(Oc3ccc(CC(=O)Nc4ccccc4)cc3)C2)c1-n1cccc1 [Example 35, methyl 3-(3-(4-(2-oxo-2-(phenylamino)ethyl)phenoxy)azetidin-1-yl)-2-(1H-pyrrol-1-yl) benzoate] | < 4.30
CNC(=O)c1cccc(N2CC(Oc3ccc(NC(=O)Cc4cccnc4)cc3)C2)c1-c1ccccc1 [Example 45c, N-methyl-6-(3-(4-(2-(pyridin-3-yl)acetamido)phenoxy)azetidin-1-yl)-[1,1′-biphenyl]-2-carboxamide] | > 6.00
COC(=O)c1cccc(N2CC(Oc3ccc(NC(=O)Cc4cccnc4)cc3)C2)c1-c1cccc(Cl)c1 [Example 48, methyl 3′-chloro-6-(3-(4-(2-(pyridin-3-yl)acetamido)phenoxy)azetidin-1-yl)-[1,1′-biphenyl]-2-carboxylate] | > 6.00
COC(=O)c1cccc(N2CC(Oc3ccc(CC(=O)Nc4cccnc4)cc3)C2)c1 [Example 43, methyl 3-(3-(4-(2-oxo-2-(pyridin-3-ylamino)ethyl)phenoxy)azetidin-1-yl) benzoate] | 5.00 to 6.00
Cc1cncc(OCc2ccc(OC3CN(c4cccc(C(=O)O)c4-n4cccc4)C3)cc2)c1 [Example 3a, 3-(3-(4-((5-methylpyridin-3-yloxy)methyl)phenoxy)azetidin-1-yl)-2-(1H-pyrrol-1-yl) benzoic acid] | < 4.30
COC(=O)c1cccc(N2CC(Oc3ccc(CNc4cccnc4)cc3)C2)c1-n1cccc1 [Example 23, methyl 3-(3-(4-((pyridin-3-ylamino)methyl)phenoxy)azetidin-1-yl)-2-(1H-pyrrol-1-yl) benzoate] | 4.30 to 5.00
Cc1cc(OC2CN(c3cccc(C(=O)O)c3-n3cccc3)C2)ccc1COc1cccnc1 [Example 15a, 3-(3-(3-methyl-4-((pyridin-3-yloxy)methyl)phenoxy)azetidin-1-yl)-2-(1H-pyrrol-1-yl) benzoic acid] | 4.30 to 5.00
COC(=O)c1cccc(N2CC(Oc3ccc(CNc4cccnc4)cc3)C2)c1-c1ccccc1 [Example 39, methyl 6-(3-(4-((pyridin-3-ylamino)methyl)phenoxy)azetidin-1-yl)-[1,1′-biphenyl]-2-carboxylate] | < 4.30
O=C(O)c1cccc(N2CC(Oc3ccc(COc4cccnc4)cc3)C2)c1-c1ccccc1 [Example 17a, 6-(3-(4-((pyridin-3-yloxy)methyl)phenoxy)azetidin-1-yl)-[1,1′-biphenyl]-2-carboxylic acid] | 5.00 to 6.00

SMILES | pEC50
O=C(Nc1ccc(OC2CN(c3cccc(C(=O)O)c3-n3cccc3)C2)cc1)Nc1cccnc1 [Example 34a, 3-(3-(4-(3-(pyridin-3-yl)ureido)phenoxy)azetidin-1-yl)-2-(1H-pyrrol-1-yl) benzoic acid] | 5.00 to 6.00
O=C(O)c1cccc(N2CC(Oc3ccc(CNc4cccnc4)cc3)C2)c1-n1cccc1 [Example 23a, 3-(3-(4-((pyridin-3-ylamino)methyl)phenoxy)azetidin-1-yl)-2-(1H-pyrrol-1-yl) benzoic acid] | 4.30 to 5.00
Cc1cncc(NC(=O)Nc2ccc(OC3CN(c4cccc(C(=O)O)c4-n4cccc4)C3)cc2)c1 [Example 47a, 3-(3-(4-(3-(5-methylpyridin-3-yl)ureido)phenoxy)azetidin-1-yl)-2-(1H-pyrrol-1-yl) benzoic acid] | > 6.00
COC(=O)c1cccc(N2CC(Oc3ccc(NC(=O)Nc4cccnc4)cc3)C2)c1-c1ccccc1 [Example 42, methyl 6-(3-(4-(3-(pyridin-3-yl)ureido)phenoxy)azetidin-1-yl)-[1,1′-biphenyl]-2-carboxylate] | > 6.00
COC(=O)c1cccc(N2CC(Oc3ccc(Cn4ccnc4)cc3)C2)c1-n1cccc1 [Example 56, methyl 3-(3-(4-((1H-imidazol-1-yl)methyl)phenoxy)azetidin-1-yl)-2-(1H-pyrrol-1-yl) benzoate] | 4.30 to 5.00
O=C(Nc1ccc(OC2CN(c3cccc(C(=O)O)c3-c3ccccc3)C2)cc1)Nc1cccnc1 [Example 42a, 6-(3-(4-(3-(pyridin-3-yl)ureido)phenoxy)azetidin-1-yl)-[1,1′-biphenyl]-2-carboxylic acid] | 5.00 to 6.00
COC(=O)c1cccc(N2CC(Oc3ccc(COc4cccs4)cc3)C2)c1-n1cccc1 [Example 30, methyl 2-(1H-pyrrol-1-yl)-3-(3-(4-((thiophen-2-yloxy)methyl)phenoxy)azetidin-1-yl) benzoate] | < 4.30
Cc1ccc(OCc2ccc(OC3CN(c4cccc(C(=O)O)c4-n4cccc4)C3)cc2)cn1 [Example 5a, 3-(3-(4-((6-methylpyridin-3-yloxy)methyl)phenoxy)azetidin-1-yl)-2-(1H-pyrrol-1-yl) benzoic acid] | < 4.30
O=C(Cc1cccnc1)Nc1ccc(OC2CN(c3cccc(C(=O)O)c3-n3cccc3)C2)cc1F [Example 52a, 3-(3-(3-fluoro-4-(2-(pyridin-3-yl)acetamido)phenoxy)azetidin-1-yl)-2-(1H-pyrrol-1-yl) benzoic acid] | > 6.00
COC(=O)c1cccc(N2CC(Oc3ccc(NC(=O)Cc4cccnc4)cc3)C2)c1C [Example 53, methyl 2-methyl-3-(3-(4-(2-(pyridin-3-yl)acetamido)phenoxy)azetidin-1-yl) benzoate] | 4.30 to 5.00
COC(=O)c1cccc(N2CC(Oc3ccc(COc4cncnc4)cc3)C2)c1-n1cccc1 [Example 14, methyl 3-(3-(4-((pyrimidin-5-yloxy)methyl)phenoxy)azetidin-1-yl)-2-(1H-pyrrol-1-yl) benzoate] | 5.00 to 6.00
COC(=O)c1cccc(N2CC(Oc3ccc(NC(=O)Cc4cccnc4)c(F)c3)C2)c1-c1ccccc1 [Example 54, methyl 6-(3-(3-fluoro-4-(2-(pyridin-3-yl)acetamido)phenoxy)azetidin-1-yl)-[1,1′-biphenyl]-2-carboxylate] | 5.00 to 6.00
O=C(c1cccc(N2CC(Oc3ccc(COc4cccnc4)cc3)C2)c1-n1cccc1)N1CCCC1 [Example 1f, (3-(3-(4-((pyridin-3-yloxy)methyl)phenoxy)azetidin-1-yl)-2-(1H-pyrrol-1-yl)phenyl)(pyrrolidin-1-yl) methanone] | 5.00 to 6.00
COC(=O)c1cccc(N2CC(Oc3ccc(COc4cccnc4)c(Cl)c3)C2)c1-n1cccc1 [Example 19, methyl 3-(3-(3-chloro-4-((pyridin-3-yloxy)methyl)phenoxy)azetidin-1-yl)-2-(1H-pyrrol-1-yl) benzoate] | 4.30 to 5.00
c1cncc(OCc2ccc(OC3CN(c4ccccc4-n4cccc4)C3)cc2)c1 [Example 1g, 3-((4-((1-(2-(1H-pyrrole-1-yl)phenyl)azetidin-3-yl)oxy)benzyl)oxy) pyridine] | 4.30 to 5.00
O=C(NO)c1cccc(N2CC(Oc3ccc(COc4cccnc4)cc3)C2)c1-c1ccccc1 [Example 17b, N-hydroxy-6-(3-(4-((pyridin-3-yloxy)methyl)phenoxy)azetidin-1-yl)-[1,1′-biphenyl]-2-carboxamide] | 5.00 to 6.00
O=C(O)c1cccc(N2CC(Oc3ccc(OCc4cccnc4)cc3)C2)c1-n1cccc1 [Example 24a, 3-(3-(4-(pyridin-3-ylmethoxy)phenoxy)azetidin-1-yl)-2-(1H-pyrrol-1-yl) benzoic acid] | 4.30 to 5.00
CN(C)C(=O)c1cccc(N2CC(Oc3ccc(COc4cccnc4)cc3)C2)c1-n1cccc1 [Example 1e, N,N-dimethyl-3-(3-(4-((pyridin-3-yloxy)methyl)phenoxy)azetidin-1-yl)-2-(1H-pyrrol-1-yl) benzamide] | 5.00 to 6.00
